Data from patent publication US5348953A, “Substituted azetidinones as anti-inflammatory and antidegenerative agents” (Merck & Co., Inc., priority 1992, dated 1994).
Like-named read-outs stand apart in the source and are kept apart here.

Key:
[1] = molecular target: T1, HUMAN PROTEINASE 3 (Homo sapiens, UniProt P24158); assay: Inhibition of PR3 catalyzed hydrolysis of MeO-Succ-AAPV-pNA; type: biochemical; conditions: 45 mM TES pH 7.5, 450 mM NaCl, 10% DMSO; 0.2 mM substrate (TABLE 2); read-out: SORC (second order rate constant, kobs/I)
T1 sequence (P24158 28-256): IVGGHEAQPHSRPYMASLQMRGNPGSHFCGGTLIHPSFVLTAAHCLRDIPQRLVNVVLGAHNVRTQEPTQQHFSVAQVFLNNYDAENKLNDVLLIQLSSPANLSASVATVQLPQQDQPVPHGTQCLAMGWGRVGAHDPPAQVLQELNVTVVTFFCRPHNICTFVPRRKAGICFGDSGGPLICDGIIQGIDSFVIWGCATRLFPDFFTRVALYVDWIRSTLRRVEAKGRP
Method: The PR3 catalyzed hydrolysis of MeO-Succ-AAPV-pNA was measured in a spectrophotometer monitoring absorbance at 410 n,m. The enzymatic activity was determined in 45 mM TES at pH 7.5, 450 mM NaCl and 10% DMSO. The data were fit by non-linear regression to equation 1 to obtain the initial rates. The nonlinear progress curves observed with time dependent inhibitors were fit to equation 2 to obtain the first order rate constant Kobs. Results were expressed as kobs/I which is the second order rate constant (SORC) in per mole per second for inactivation of the enzyme.
EQN 2 Y=vs *X+[(vo -vs) (1-e^(-K.sbsp.o^*X))/Ko
Kinetic constants for the inhibition of PR3 catalyzed hydrolysis of 0.2 mM MoO-succ-AAPV-pNA were determined by varying the concentration of inhibitor present in the reaction vessel.

[2] = Extended storage of the L-malic acid salt at rt; type: physicochemical
Description: NMR (CDCl3 δ from TMS): 0.9-1.0 (m, 6H), 1.0-1.1 (m, 6H), 1.2-1.4 (m, 2H), 1.6-1.95(2 m's, 6H), 2.30 (s, 3H), 2.6-2.9 (2 m's, 4H), 2.92 and 2.94 (2 s, 3H), 3.2-3.4 (m, 2H), 3.52 (br t, 2H, J=8 Hz), 4.5-4.8 (m, 3H), 5.11 (br s, 1H), 7.04 (2 d's, 1H, J=8Hz), 7.13 (br S, 4H).
The material prepared as described above in Example 20, Step A was hydrogenated as described in Example 19, Step B to afford the L-malic acid salt of 2-(S)-[2-[[2-aminoethyl]-ethylamino]-2-oxoethoxy]-3,3-diethyl-N-[1-(R)-(4- methylphenyl)butyl]-4-oxo-1-azetidinecarboxamide as an oil. […] This process could be evaluated by HPLC analysis.

[3] = molecular target: T2, Human Polymorphonuclear Leukocyte Elastase (Homo sapiens, UniProt P08246); assay: Inhibition of human polymorphonuclear leukocyte elastase via hydrolysis of Boc-AAPAN or Boc-AAPVN; type: biochemical; conditions: pH 7.5, Formula A, M n-propyl, read-out: kobs /[I]
T2 construct: Crude extract of human polymorphonuclear leukocytes (PMN) containing elastase activity; from tissue; host or cells: human polymorphonuclear leukocytes (crude extract)
T2 sequence (P08246 30-267): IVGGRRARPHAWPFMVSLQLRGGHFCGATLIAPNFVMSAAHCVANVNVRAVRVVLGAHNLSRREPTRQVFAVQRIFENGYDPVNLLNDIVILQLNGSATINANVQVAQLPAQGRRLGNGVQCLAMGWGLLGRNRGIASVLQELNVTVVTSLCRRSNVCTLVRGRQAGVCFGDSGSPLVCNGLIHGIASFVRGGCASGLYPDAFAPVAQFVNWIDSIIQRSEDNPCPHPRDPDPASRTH
Method: Enzyme Assays for the Inhibition of Human Polymorphonuclear Leukocyte
Elastase Via Hydrolysis of
N-t-Boc-alanyl-alanyl-prolylalanine-p-nitroanilide (Boc-AAPAN) or
N-t-Boc-alanyl-prolylvaline-p-nitroanilide (Boc-AAPVN) Reagent:
0.05M TES (N-tris[hydroxymethyl]methyl-2-amino-ethanesulfonic acid) Buffer, pH 7.5.
0.2 mM Boc-AAPAN or Boc-AAPVN.
To prepare substrate, the solid was first dissolved in 10.0 ml DMSO. Buffer at pH 7.5 was then added to a final volume of 100 ml.
Crude extract of human polymorphonuclear leukocytes (PMN) containing elastase activity.
Inhibitors (azetidinones) to be tested dissolved in DMSO just before use.
To 1.0 ml of 0.2 mM Boc-AAPAN in a cuvette, 0.01-0.1 ml of DMSO with or without inhibitor was added. After mixing, a measurement was taken at 410 mμ to detect any spontaneous hydrolysis due to presence of test compound. 0.05 Milliliters of PMN extract was then added and the ΔOD/min at 410 mμ was measured and recorded. Beckman model 35 spectrophotometer was used.
Results in Table I were reported as ID50, effective dosage in micrograms per milliliter (μg/ml) for 50% inhibition of the enzyme activity 2 minutes after zero time.
Results were also expressed as Ki, the micromolar concentration of the inhibitor (μM) giving 50% of the control enzyme activity; or as ^k obs/I which is the second order rate constant in per mole per second for inactivation of the enzyme.
The elastase activity in the crude PMN extract may vary from one preparation to another. A control of each new batch is run, and the volume added in the assay procedure is adjusted according to activity.

[4] = second order rate constant for inactivation, R2 4-methyl (TABLE 1)

Row | SMILES | kinact/KI [3, 4] [M⁻¹ s⁻¹] | other results
1 | CCC[C@@H](NC(=O)N1C(=O)C(CC)(CC)[C@@H]1OCC(=O)N(CC)CCN(C)CCOC)c1ccc(C)cc1 [2-(S)-[2-[[2-((2-Methoxyethyl)-methylamino)ethyl]ethylamino]-2-oxoethoxy]-3,3-diethyl-N-[1-(R)-(4methylphenyl)butyl]-4-oxo-1-azetidinecarboxamide] |  | kinact/KI [1]: 13700 M⁻¹ s⁻¹
2 | CCC[C@@H](NC(=O)N1C(=O)C(CC)(CC)[C@@H]1OCC(=O)N(CC)CCNC)c1ccc(C)cc1 [Example 19, 2-(S)-[2-[[2-Methylaminoethyl]-ethylamino]-2-oxoethoxy]-3,3-diethyl-N-[1-(R)-(4-methylphenyl)butyl]-4-oxo-1-azetidinecarboxamide] |  | stability upon storage [2]: rearranges to an isomeric equilibrium mixture
3 | CCC[C@@H](NC(=O)N1C(=O)C(CC)(CC)[C@@H]1OCC(=O)N(CC)CCN)c1ccc(C)cc1 [Example 20, 2-(S)-[2-[[2-Aminoethyl]-ethylamino]-2-oxoethoxy]-3,3-diethyl-N-[1-(R)-(4-methylphenyl)butyl]-4-oxo-1-azetidinecarboxamide] |  | stability upon storage [2]: rearranged upon storage to an equilibrium mixture of isomers
4 | CCC[C@@H](NC(=O)N1C(=O)C(CC)(CC)[C@@H]1OCC(=O)N1CCN(C)CC1)c1ccc(C)cc1 [R2=4-Me; R5=H; Z=--Me, 2-(S)-[2-[2-(4-Methyl)piperazin-1-yl]-2-oxoethoxy]-3,-3-diethyl-N-[1-(R)-(4-methylphenyl)-butyl]4-oxo-1-azetidinecarboxamide] |  | kinact/KI ([3]; second order rate constant, R4 piperazine amide with substituent Z): 150000 M⁻¹ s⁻¹; kinact/KI [1]: 14800 M⁻¹ s⁻¹
5 | CCC[C@@H](NC(=O)N1C(=O)C(CC)(CC)[C@@H]1OCC(=O)N(CCC)CCN(CC)CC)c1ccc(C)cc1 [Y=N(Pr)CH2 CH2; R5=H; R7=Et; R8=Et, 2-(S)-[2-[[2-(Diethylamino)ethyl]propylamino]-2-oxoethoxy]-3,3-diethyl-N-[1-(R)-(4-methylphenyl)butyl]-4-oxo-1-azetidinecarboxamide] | 170000 | 
6 | CCC[C@@H](NC(=O)N1C(=O)C(CC)(CC)[C@@H]1OCC(=O)N(CCN(CC)CC)C(C)C)c1ccc(C)cc1 [Y=N(iPr)CH2 CH2; R5=H; R7=Et; R8=Et] | 175000 | 
7 | CCC[C@@H](NC(=O)N1C(=O)C(CC)(CC)[C@@H]1OCC(=O)NCCN1CCOCC1)c1ccc(C)cc1 [Y=NHCH2 CH2; R5=H; R7 R8=CH2 CH2OCH2 CH2, 2-(S)-[2-[[2-(morpholin-1-yl)ethyl]amino]-2-oxoethoxy]-3,3-diethyl-N-[1-(R)-(4-methylphenyl)butyl]-4-oxo-1-azetidinecarboxamide] | 115000 | 
8 | CCC[C@@H](NC(=O)N1C(=O)C(CC)(CC)[C@@H]1OCC(=O)N(CC)CC)c1ccc(C)cc1 [Y=co-valent bond; R5=H; R7=Et; R8=Et] | 315000 | 

Now from value to molecule, other results behind:

Row | kinact/KI [3, 4] [M⁻¹ s⁻¹] | SMILES | other results
9 | 120000 | CCC[C@@H](NC(=O)N1C(=O)C(CC)(CC)[C@@H]1OCC(=O)N(CC)CCN(C)C)c1ccc(C)cc1 [Y=N(Et)CH2 CH2; R5=H; R7=Me; R8=Me, 2-(S)-[2-[[2-(Dimethylamino)ethyl]ethylamino]-2-oxoethoxy]-3,3-diethyl-N-[1-(R)-(4-methylphenyl)butyl]-4-oxo-1-azetidinecarboxamide] | kinact/KI [1]: 7900 M⁻¹ s⁻¹
10 | 115000 | CCC[C@@H](NC(=O)N1C(=O)C(CC)(CC)[C@@H]1OCC(=O)N(C)CCN(C(C)C)C(C)C)c1ccc(C)cc1 [Y=N(Me)CH2 CH2; R5=H; R7=iPr; R8=iPr, 2-(S)-[2-[[2-(Diisopropylamino)ethyl]methylamino]-2-oxoethoxy]-3,3-diethyl-N-[1-(R)-(4-methylphenyl)butyl]-4-oxo-1-azetidinecarboxamide] | 
11 | 1.8e+06 | CCC[C@@H](NC(=O)N1C(=O)C(CC)(CC)[C@@H]1O[C@@H](C)C(=O)N(C)CCN(CC)CC)c1ccc(C)cc1 [Y=N(Me)CH2 CH2; R5=Me; R7=Et; R8=Et, 2-(S)-[2-[[2-(Diethylamino)ethyl]methylamino]-2-oxo-(1-(S)-methyl)ethoxy]-3,3-diethyl-N-[1-(R)-(4-methylphenyl)butyl]-4-oxo-1-azetidinecarboxamide] | 
12 | 1.65e+06 | CCC[C@@H](NC(=O)N1C(=O)C(CC)(CC)[C@@H]1O[C@@H](C)C(=O)N(C)CCN(C)C)c1ccc(C)cc1 [Y=N(Me)CH2 CH2; R5=Me; R7=Me; R8=Me, 2-(S)-[2-[[2-(Dimethylamino)ethyl]methylamino]-2-oxo-(1-(S)-methyl)ethoxy]-3,3-diethyl-N-[1-(R)-(4-methylphenyl)butyl]-4-oxo-l-azetidinecarboxamide] | 
13 | 175000 | CCC[C@@H](NC(=O)N1C(=O)C(CC)(CC)[C@@H]1OCC(=O)N(CCN(C)C)C(C)C)c1ccc(C)cc1 [Y=N(iPr)CH2 CH2; R5=H; R7=Me; R8=Me] | 
14 | 220000 | CCC[C@@H](NC(=O)N1C(=O)C(CC)(CC)[C@@H]1OCC(=O)NCCN(CC)CC)c1ccc(C)cc1 [Y=NHCH2 CH2; R5=H; R7=Et; R8=Et, 2-(S)-[2-[[2-(Diethylamino)ethyl]amino]-2-oxoethoxy]-3,3-diethyl-N-[1-(R)-(4-methylphenyl)butyl]-4-oxo-1-azetidinecarboxamide] | 
15 | 105000 | CCC[C@@H](NC(=O)N1C(=O)C(CC)(CC)[C@@H]1OCC(=O)NCCN(C(C)C)C(C)C)c1ccc(C)cc1 [Y=NHCH2 CH2; R5=H; R7=iPr; R8=iPr, 2-(S)-[2-[[2-(Diisopropylamino)ethyl]amino]-2-oxoethoxy]-3,3-diethyl-N-[1-(R)-(4-methylphenyl)butyl]-4-oxo-1-azetidinecarboxamide] | 
16 | 1.35e+06 | CCC[C@@H](NC(=O)N1C(=O)C(CC)(CC)[C@@H]1O[C@@H](C)C(=O)NCCN(CC)CC)c1ccc(C)cc1 [Y=NHCH2 CH2; R5=Me; R7=Et; R8=Et, 2-(S)-[2-[[2-(Diethylamino)ethyl]amino]-2-oxo-(1-(S)-methyl)ethoxy]-3,3-diethyl-N-[1-(R)-(4-methyl-phenyl)butyl]-4-oxo-l-azetidinecarboxamide] | 
17 | 1.04e+06 | CCC[C@@H](NC(=O)N1C(=O)C(CC)(CC)[C@@H]1O[C@@H](C)C(=O)NCCN(C)C)c1ccc(C)cc1 [Y=NHCH2 CH2; R5=Me; R7=Me; R8=Me, 2-(S)-[2-[[2-(Dimethylamino)ethyl]amino]-2-oxo-(1-(S)-methyl)ethoxy]-3,3-diethyl-N-[1-(R)-(4-methylphenyl)butyl]-4-oxo-1-azetidinecarboxamide] | 
18 | 125000 | CCC[C@@H](NC(=O)N1C(=O)C(CC)(CC)[C@@H]1OCC(=O)N(C)C)c1ccc(C)cc1 [Y=co-valent bond; R5=H; R7=Me; R8=Me] | 
